From PMC7792944, “Pharmacological Characterization of µ-Opioid Receptor Agonists with Biased G Protein or β-Arrestin Signaling, and Computational Study of Conformational Changes during Receptor Activation” (Molecules, 2020)
Values joined by “and” are separate entries in the source; they are usually repeats but may differ in a detail not shown here. Equal entries are not always repeated. Bridge positions count the residues as written; N and C are the ends. Square brackets hold non-standard residues; d marks the D form. Ends that are not written are not given here. Peptide text beside a SMILES is read from it. Phe(4-CF3) = N[C@@H](Cc1ccc(C(F)(F)F)cc1)C(=O)O; Dmt = Cc1cc(O)cc(C)c1C[C@H](N)C(=O)O

Tests used:
MOP [1] = biological target: MOP; design: method as in ref [44] (F-81), [45] (C-33); settings: [3H]DAMGO, human opioid receptor membranes; ref [44] (F-81), [45] (C-33); cited from earlier work
KOP = biological target: KOP; design: method as in ref [44] (F-81), [45] (C-33); settings: [3H]U-69593, human opioid receptor membranes; ref [44] (F-81), [45] (C-33); cited from earlier work
DPP IV = tested on: DPP IV; design: method as in ref [44] (F-81), [45] (C-33); settings: ref [44] (F-81), [45] (C-33); cited from earlier work
[2] = design: method as in ref [44] (F-81), [45] (C-33); settings: ref [44] (F-81), [45] (C-33); cited from earlier work
human recombinant MOP = settings: cited from earlier work; for MOP pEC50 (CL95%): calcium signaling via chimeric G proteins, ref [44] (EM-2, DPDPE, Dyn A, F-81); for MOP pEC50 (CL95%) / MOP α±SEM: [45] (C-33); for MOP α±SEM: maximal effect, calcium signaling, ref [44]
human recombinant DOP = tested on: human recombinant DOP; design: method as in ref [44], [45] (C-33); settings: ref [44], [45] (C-33), cited from earlier work; for DOP pEC50 (CL95%): calcium signaling via chimeric G proteins; for DOP α±SEM: maximal effect, calcium signaling
human recombinant KOP = tested on: human recombinant KOP; design: method as in ref [44], [45] (C-33); settings: ref [44], [45] (C-33), cited from earlier work; for KOP pEC50 (CL95%): calcium signaling via chimeric G proteins; for KOP α±SEM: maximal effect, calcium signaling
MOP/G-protein = settings: BRET, [45] (C-33), cited from earlier work; for MOP/G-protein α±SEM: maximal effect, ref [44]; for MOP/G-protein pEC50 (CL95%): ref [44] (EM-2, F-81)
MOP/β-arrestin 2 = settings: cited from earlier work; for MOP/β-arrestin 2 pEC50 (CL95%): ref [44] (EM-2, F-81)
DOP = settings: read-out: Ki DOP; [3H]deltorphin-2, human opioid receptor membranes; ref [44] (F-81), [45] (C-33); cited from earlier work
MOP [3] = tested on: MOP; design: method as in PMID 31351108; settings: Gαi2 and GαoA; ref [43]; cited from earlier work
human MOP = biological target: T1, human MOP (Homo sapiens, UniProt P35372); test: [35S]GTPγS binding assay (G-protein activation) in CHO-hMOP cell membranes; format: biochemical; settings: for %Stim: efficacy normalized to the maximum stimulation caused by EM-1
T1 construct: originator Prof L. Toll, SRI International; host or cells: CHO (CHO-hMOP), membranes
Protocol: Herein, for the first time the biased agonism of F-81 and C-33 is analyzed by [^35S]GTPγS binding assay (Table 1) and PathHunter enzyme complementation assay (Table 2). [^35S]GTPγS binding assay, which characterizes ligand-driven G protein activation, was performed in CHO cells stably expressing the human MOP [46, 47].
[^35S]GTPγS binding assay. CHO cells stably expressing the human MOP receptor (in brief, CHO-hMOP cells, provided by Prof G. Calo, University of Ferrara; originator was Prof L. Toll, SRI International, Menlo Park, CA, USA) were grown in Hams F12 containing streptomycin (100 μg/mL), fungizone 2.5 μg/mL), penicillin (100 IU/mL) and 10% fetal bovine serum (FBS). Stock medium containing G418 (200 μg/mL) was used to maintain CHO-hMOP expression. Experiments were performed according to the literature. Cell membranes (5–10 µg) were incubated at 30 °C with 0.05 nM [^35S]GTPγS (PekinElmer, 549 Albany St, Boston, MA 02118, US), 10 µM GDP and various concentrations of a tested peptide in the final volume of 1 mL, for 60 min. Non-specific binding was determined using 10 µM GTPγS, and the basal binding was determined in the absence of a tested peptide. Incubations were terminated by rapid filtration through the GF/B Whatman glass fiber strips and the bound radioactivity was measured in a liquid scintillation counter. Five independent experiments were carried out. The data were analyzed by a nonlinear least square regression analysis computer program Graph Pad PRISM 5.0 (GraphPad Software Inc., San Diego, CA, USA).

[4] = biological target: T2, CHO-K1 OPRM1 (μ-opioid receptor (MOP))/β-arrestin 2 (Homo sapiens, UniProt P35372); test: PathHunter enzyme complementation assay, β-arrestin 2 recruitment; format: cell-based; settings: for EC50 / %Stim: CHO-K1 OPRM1 β-arrestin 2 cell line; for EC50: mean ± SEM, n = 5; for %Stim: normalized to the maximum stimulation caused by EM-1 (100%)
T2 construct: host or cells: CHO-K1 (CHO-K1 OPRM1 β-arrestin cell line)
Protocol: Since in most studies reported in the introduction, β-arrestin 2 was used, for easy comparison we decided to characterize this isoform, despite being the minority as compared to β-arrestin 1 in most cells, including neurons. The use of β-arrestin 2 is supported by its similarity in opioid receptor binding with β-arrestin 1 [37, 50].
Measurement of β-arrestin 2 recruitment. β-arrestin 2 recruitment at MOP was measured using the DiscoveRxPathHunter® β-arrestin kit (DiscoveRx, Fremont, CA, USA) according to manufacturer’s recommendations and previously published procedure. CHO cells were engineered to co-express the ProLink™ (PK) tagged GPCR (GPCR-PK) and the enzyme acceptor (EA) tagged β-arrestin 2 (β-arrestin-EA) (CHO-K1 OPRM1 β-arrestin cell line). Activation of the GPCR-PK induces β-arrestin-EA recruitment, forcing complementation of the two β-galactosidase enzyme fragments (EA and PK). The resulting functional enzyme hydrolyzes substrate to generate a chemiluminescent signal which was measured by luminometry. Briefly, 20 μL of PathHunter cells as taken from the kit were seeded in each well and incubated overnight at 37 °C. […] Detection Reagent Working Solution (12 μL) was added and incubation was continued for 60 min at rt. Chemiluminescent signal was read using a Viewlux imaging plate reader (PerkinElmer, Cambridge, MA, USA).

T2 sequence (P35372 whole entry): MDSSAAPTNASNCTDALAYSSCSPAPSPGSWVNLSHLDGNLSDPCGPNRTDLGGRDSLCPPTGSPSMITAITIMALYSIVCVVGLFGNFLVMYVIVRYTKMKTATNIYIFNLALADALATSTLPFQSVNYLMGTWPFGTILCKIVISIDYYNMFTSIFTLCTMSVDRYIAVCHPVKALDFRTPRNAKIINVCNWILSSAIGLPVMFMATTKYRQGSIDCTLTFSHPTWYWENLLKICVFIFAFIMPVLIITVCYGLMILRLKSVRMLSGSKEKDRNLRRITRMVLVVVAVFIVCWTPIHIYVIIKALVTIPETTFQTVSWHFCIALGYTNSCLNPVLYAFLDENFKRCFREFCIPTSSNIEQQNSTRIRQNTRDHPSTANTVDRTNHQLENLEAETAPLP
T2 sequence (P32121 whole entry partner): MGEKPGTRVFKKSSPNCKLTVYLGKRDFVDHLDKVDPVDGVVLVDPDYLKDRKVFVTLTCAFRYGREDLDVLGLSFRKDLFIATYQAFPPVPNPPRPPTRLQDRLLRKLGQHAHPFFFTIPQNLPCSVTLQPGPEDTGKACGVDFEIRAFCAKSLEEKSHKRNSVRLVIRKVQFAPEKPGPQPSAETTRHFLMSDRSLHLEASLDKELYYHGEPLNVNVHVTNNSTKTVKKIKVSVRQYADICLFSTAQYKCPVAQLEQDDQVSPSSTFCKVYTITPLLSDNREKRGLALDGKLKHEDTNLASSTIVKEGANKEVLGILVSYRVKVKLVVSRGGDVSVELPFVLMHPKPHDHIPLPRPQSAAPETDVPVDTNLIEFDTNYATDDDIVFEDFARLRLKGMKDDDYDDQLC
T1 sequence (P35372 whole entry): as the sequence (P35372 whole entry) above

Tyr-Pro-Phe-Phe-NH2 (YPFF-NH2) [EM-2, reference compound]
Ki (MOP [1]): 2.5 ± 0.05 nM
Ki (KOP): > 1000 nM
Enzymatic stability Area [%] 120 min DPP IV (DPP IV): 1.9±0.03%
Enzymatic stability Area [%] 120 min Homogenate [2]: 6.5±0.15%
MOP pEC50 (CL95%) (human recombinant MOP): 7.83
MOP α±SEM (human recombinant MOP): 1.00
DOP pEC50 (CL95%) (human recombinant DOP): inactive
KOP pEC50 (CL95%) (human recombinant KOP): inactive
MOP/G-protein α±SEM (MOP/G-protein): 1.00
MOP/G-protein pEC50 (CL95%) (MOP/G-protein): 7.32
MOP/β-arrestin 2 α±SEM (MOP/β-arrestin 2; BRET, maximal effect, ref [44], [45] (C-33)): 1.00
MOP/β-arrestin 2 pEC50 (CL95%) (MOP/β-arrestin 2; BRET, [45] (C-33)): 7.20
bias factor (CL95%) (MOP/β-arrestin 2; calculated by using EM-2 as a standard unbiased ligand, ref [44], [45] (C-33)): 0.00
Ki (DOP): > 1000 nM

Dyn A: reference agonist in calcium mobilization assay (KOP)
MOP pEC50 (CL95%) (human recombinant MOP): 6.67
MOP α±SEM (human recombinant MOP): 0.83±0.10
DOP pEC50 (CL95%) (human recombinant DOP): 7.73
DOP α±SEM (human recombinant DOP): 0.99±0.04
KOP α±SEM (human recombinant KOP): 1.00

COc1ccsc1CNCC[C@]1(c2ccccn2)CCOC2(CCCC2)C1 [(S)-TRV130]
G protein activation, less potent compared to its (R)-isomer (MOP [3]): 90 fold

Cc1cc(O)cc(C)c1C[C@H](N)C(=O)N[C@@H]1CCCCNC(=O)C[C@@H](C(N)=O)NC(=O)[C@H](Cc2ccc(C(F)(F)F)cc2)NC(=O)[C@H](Cc2ccccc2)NC1=O [F-81, Dmt-c[D-Lys-Phe-p-CF3-Phe-Asp]NH2] (H-[Dmt][dK]F[Phe(4-CF3)]D-NH2; lactam 2-5)
EC50 (human MOP): 0.112 nM
Class (human MOP; CHO-hMOP, [35S]GTPγS binding): high efficacy partial agonist
%Stim (human MOP; CHO-hMOP): 68 ± 1 %
EC50 [4]: 0.398 nM
%Stim [4]: 41% and 41 ± 15 %
agonist behaviour, β-arrestin 2 recruitment (in words) ([4]; PathHunter, compared to EM-1): low efficacy partial agonist
Ki (MOP [1]): 2.4 nM
Ki (KOP): 31.1 nM
Enzymatic stability Area [%] 120 min DPP IV (DPP IV): 92.1±3.27%
Enzymatic stability Area [%] 120 min Homogenate [2]: 90.7±3.14%
higher potency than the reference EM-2 (human recombinant MOP; calcium mobilization assay, MOP, ref [44],[45]): 2 fold
MOP pEC50 (CL95%) (human recombinant MOP): 8.19
MOP α±SEM (human recombinant MOP): 0.8±0.05
DOP pEC50 (CL95%) (human recombinant DOP): inactive
KOP pEC50 (CL95%) (human recombinant KOP): 8.22
KOP α±SEM (human recombinant KOP): 0.63±0.04
MOP/G-protein α±SEM (MOP/G-protein): 0.82±0.04
MOP/G-protein pEC50 (CL95%) (MOP/G-protein): 8.28
MOP/β-arrestin 2 pEC50 (CL95%) (MOP/β-arrestin 2; BRET, [45] (C-33)): inactive
receptor/β-arrestin interaction (in words) (MOP/β-arrestin 2; BRET, ref [44]): did not promote receptor/β-arrestin interaction
Ki (DOP): > 1000 nM

DPDPE
MOP pEC50 (CL95%) (human recombinant MOP): inactive
DOP pEC50 (CL95%) (human recombinant DOP): 7.33
DOP α±SEM (human recombinant DOP): 1.00
KOP pEC50 (CL95%) (human recombinant KOP): inactive

Cc1cc(O)cc(C)c1C[C@H](N)C(=O)N[C@@H]1CCCCNC(=O)C[C@@H](C(N)=O)NC(=O)[C@H](Cc2ccccc2)NC1=O [C-33, Dmt-c[D-Lys-Phe-Asp]NH2] (H-[Dmt][dK]FD-NH2; lactam 2-4)
EC50 (human MOP): 0.0794 nM
%Stim (human MOP; CHO-hMOP): 88 ± 3%
EC50 [4]: 2.51 nM
%Stim [4]: 156% and 156 ± 3 %
Enzymatic stability Area [%] 120 min DPP IV (DPP IV): 91.1±4.21%
Enzymatic stability Area [%] 120 min Homogenate [2]: 89±2.27%
